Blank lines part the entries; values can stand above or below the compound they belong to.
How the values were obtained:
[1] = biological target: T1, Protein deacetylase HDAC6 (Homo sapiens, UniProt Q9UBN7); assay: Inhibition of recombinant full-length human HDAC6 expressed in baculovirus expression system using FAM-RHKK(Ac)-H2 as substrate measured by electrophoretic mobility shift assay
T1 sequence (Q9UBN7 whole entry): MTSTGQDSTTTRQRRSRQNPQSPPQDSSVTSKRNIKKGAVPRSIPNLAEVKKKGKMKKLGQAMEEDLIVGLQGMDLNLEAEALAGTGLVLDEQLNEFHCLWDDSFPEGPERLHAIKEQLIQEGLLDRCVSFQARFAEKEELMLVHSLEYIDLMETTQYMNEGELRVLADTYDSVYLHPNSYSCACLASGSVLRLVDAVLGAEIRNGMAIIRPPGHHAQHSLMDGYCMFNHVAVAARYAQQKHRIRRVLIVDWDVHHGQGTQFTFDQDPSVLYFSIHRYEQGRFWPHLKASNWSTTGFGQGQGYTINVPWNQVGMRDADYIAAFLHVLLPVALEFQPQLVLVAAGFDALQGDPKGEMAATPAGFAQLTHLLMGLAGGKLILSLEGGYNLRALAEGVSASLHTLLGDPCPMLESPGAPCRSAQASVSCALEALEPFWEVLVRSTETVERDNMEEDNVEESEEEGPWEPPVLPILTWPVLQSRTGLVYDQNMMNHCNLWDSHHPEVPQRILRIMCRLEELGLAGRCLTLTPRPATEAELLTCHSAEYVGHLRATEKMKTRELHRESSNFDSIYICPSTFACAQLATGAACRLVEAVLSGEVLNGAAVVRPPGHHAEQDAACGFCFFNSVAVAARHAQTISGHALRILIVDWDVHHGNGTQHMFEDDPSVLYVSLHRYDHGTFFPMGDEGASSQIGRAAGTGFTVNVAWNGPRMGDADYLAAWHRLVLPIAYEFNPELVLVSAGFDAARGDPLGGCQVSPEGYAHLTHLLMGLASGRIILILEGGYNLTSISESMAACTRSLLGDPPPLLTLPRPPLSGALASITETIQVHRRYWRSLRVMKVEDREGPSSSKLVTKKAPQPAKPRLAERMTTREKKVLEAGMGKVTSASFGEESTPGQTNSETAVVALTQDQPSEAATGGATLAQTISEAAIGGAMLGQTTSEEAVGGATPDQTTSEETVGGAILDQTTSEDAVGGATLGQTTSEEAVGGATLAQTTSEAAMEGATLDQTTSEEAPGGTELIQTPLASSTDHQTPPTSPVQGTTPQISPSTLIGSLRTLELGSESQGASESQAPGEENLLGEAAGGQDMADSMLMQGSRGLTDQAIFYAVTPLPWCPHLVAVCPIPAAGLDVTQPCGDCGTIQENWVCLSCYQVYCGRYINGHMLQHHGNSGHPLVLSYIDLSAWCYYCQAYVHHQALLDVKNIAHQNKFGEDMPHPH

[2] = biological target: T2, Histone deacetylase 1 (Homo sapiens, UniProt Q13547); assay: Inhibition of HDAC1 (unknown origin) using Ac-peptide as substrate preincubated for 15 mins followed by substrate addition and measured after 60 mins by fluorescence assay
[3] = biological target: T2, Histone deacetylase 1; assay: Inhibition of GST-tagged HDAC1 (unknown origin) expressed in insect cells using poly (Glu, Tyr) 4:1 as substrate measured after 15 mins in presence of [gamma-33P]ATP by Topcount method
[4] = biological target: T3, Polyamine deacetylase HDAC10 (Homo sapiens, UniProt Q969S8); assay: Inhibition of human HDAC10 using fluorogenic HDAC substrate
T3 sequence (Q969S8 whole entry): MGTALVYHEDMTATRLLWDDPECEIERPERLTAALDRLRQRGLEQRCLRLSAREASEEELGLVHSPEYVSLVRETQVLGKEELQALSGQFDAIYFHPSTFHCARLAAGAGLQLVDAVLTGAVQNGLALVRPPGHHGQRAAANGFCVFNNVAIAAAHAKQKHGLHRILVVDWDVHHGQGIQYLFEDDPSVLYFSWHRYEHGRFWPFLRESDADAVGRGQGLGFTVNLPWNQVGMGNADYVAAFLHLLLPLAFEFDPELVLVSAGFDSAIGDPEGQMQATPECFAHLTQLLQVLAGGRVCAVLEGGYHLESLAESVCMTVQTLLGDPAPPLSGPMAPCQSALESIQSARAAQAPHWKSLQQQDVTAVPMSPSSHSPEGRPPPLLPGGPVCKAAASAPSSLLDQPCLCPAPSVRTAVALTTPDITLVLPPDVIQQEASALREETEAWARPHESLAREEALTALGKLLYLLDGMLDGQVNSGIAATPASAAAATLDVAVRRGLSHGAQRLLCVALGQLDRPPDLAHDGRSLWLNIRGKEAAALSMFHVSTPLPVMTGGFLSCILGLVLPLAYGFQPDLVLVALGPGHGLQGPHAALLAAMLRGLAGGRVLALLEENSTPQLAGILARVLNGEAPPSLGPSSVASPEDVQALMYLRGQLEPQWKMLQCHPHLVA

[5] = biological target: Histone deacetylase 5 (Homo sapiens, UniProt Q9UQL6); assay: Inhibition of human HDAC5 using fluorogenic HDAC substrate
[6] = biological target: Histone deacetylase 2 (Homo sapiens, UniProt Q92769); assay: Inhibition of human HDAC2 using fluorogenic HDAC substrate
[7] = biological target: Histone deacetylase 9 (Homo sapiens, UniProt Q9UKV0); assay: Inhibition of human HDAC9 using fluorogenic HDAC substrate
[8] = biological target: T4, Histone deacetylase 3 (Homo sapiens, UniProt O15379); assay: Inhibition of human HDAC3 using fluorogenic HDAC substrate
[9] = biological target: T5, Histone deacetylase 11 (Homo sapiens, UniProt Q96DB2); assay: Inhibition of human HDAC11 using fluorogenic HDAC substrate
T5 sequence (Q96DB2 whole entry): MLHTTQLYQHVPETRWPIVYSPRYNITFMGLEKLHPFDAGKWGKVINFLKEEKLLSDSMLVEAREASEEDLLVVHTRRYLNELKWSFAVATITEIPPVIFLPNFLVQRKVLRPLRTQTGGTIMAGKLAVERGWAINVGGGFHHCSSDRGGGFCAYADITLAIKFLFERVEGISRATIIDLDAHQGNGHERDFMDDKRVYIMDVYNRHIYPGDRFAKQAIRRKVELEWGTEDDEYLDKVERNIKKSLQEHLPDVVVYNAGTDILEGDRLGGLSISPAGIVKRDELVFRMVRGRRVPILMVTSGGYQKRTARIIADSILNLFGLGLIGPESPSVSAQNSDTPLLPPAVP

[10] = biological target: T6, Histone deacetylase 8 (Homo sapiens, UniProt Q9BY41); assay: Inhibition of human HDAC8 using fluorogenic HDAC substrate
T6 sequence (Q9BY41 whole entry): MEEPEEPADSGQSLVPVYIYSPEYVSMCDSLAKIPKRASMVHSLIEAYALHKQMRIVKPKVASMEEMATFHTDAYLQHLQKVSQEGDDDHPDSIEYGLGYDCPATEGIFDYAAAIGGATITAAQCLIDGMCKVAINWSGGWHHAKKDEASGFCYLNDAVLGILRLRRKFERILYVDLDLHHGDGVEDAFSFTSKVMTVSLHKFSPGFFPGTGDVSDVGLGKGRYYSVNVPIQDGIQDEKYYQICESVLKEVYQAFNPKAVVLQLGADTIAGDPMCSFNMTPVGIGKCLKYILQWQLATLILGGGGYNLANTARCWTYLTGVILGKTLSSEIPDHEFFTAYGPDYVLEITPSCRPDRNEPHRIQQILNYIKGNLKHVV

[11] = biological target: Histone deacetylase 4 (Homo sapiens, UniProt P56524); assay: Inhibition of human HDAC4 using fluorogenic HDAC substrate
[12] = biological target: T1, Protein deacetylase HDAC6; assay: Inhibition of human HDAC6 using fluorogenic HDAC substrate
[13] = biological target: T2, Histone deacetylase 1; assay: Inhibition of human HDAC1 using fluorogenic HDAC substrate
[14] = biological target: T1, Protein deacetylase HDAC6; assay: Inhibition of HDAC6 (unknown origin)
[15] = biological target: T4, Histone deacetylase 3; assay: Inhibition of HDAC3 (unknown origin)
[16] = biological target: Histone deacetylase (HDAC1 and HDAC2) (Homo sapiens, UniProt Q13547+Q92769); format: cell-based; settings: hela
[17] = tested on: Zea mays; assay: Inhibition of maize HD2 at 5 uM using [3H]acetate-labelled histone as substrate by liquid scintillation counting method relative to control

T4 sequence (O15379 whole entry): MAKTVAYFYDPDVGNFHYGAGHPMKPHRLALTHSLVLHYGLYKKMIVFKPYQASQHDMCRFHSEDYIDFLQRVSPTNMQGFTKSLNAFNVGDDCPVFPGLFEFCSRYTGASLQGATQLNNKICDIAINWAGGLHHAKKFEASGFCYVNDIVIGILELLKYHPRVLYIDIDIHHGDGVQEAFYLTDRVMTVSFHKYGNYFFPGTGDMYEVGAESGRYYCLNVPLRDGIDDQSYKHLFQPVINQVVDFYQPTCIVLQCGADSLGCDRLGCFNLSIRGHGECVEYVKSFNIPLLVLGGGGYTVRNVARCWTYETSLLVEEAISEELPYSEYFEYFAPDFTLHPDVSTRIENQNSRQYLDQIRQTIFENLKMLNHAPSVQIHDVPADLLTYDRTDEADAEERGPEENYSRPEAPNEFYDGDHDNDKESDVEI
Chain of Histone deacetylase 5 (Q9UQL6 whole entry): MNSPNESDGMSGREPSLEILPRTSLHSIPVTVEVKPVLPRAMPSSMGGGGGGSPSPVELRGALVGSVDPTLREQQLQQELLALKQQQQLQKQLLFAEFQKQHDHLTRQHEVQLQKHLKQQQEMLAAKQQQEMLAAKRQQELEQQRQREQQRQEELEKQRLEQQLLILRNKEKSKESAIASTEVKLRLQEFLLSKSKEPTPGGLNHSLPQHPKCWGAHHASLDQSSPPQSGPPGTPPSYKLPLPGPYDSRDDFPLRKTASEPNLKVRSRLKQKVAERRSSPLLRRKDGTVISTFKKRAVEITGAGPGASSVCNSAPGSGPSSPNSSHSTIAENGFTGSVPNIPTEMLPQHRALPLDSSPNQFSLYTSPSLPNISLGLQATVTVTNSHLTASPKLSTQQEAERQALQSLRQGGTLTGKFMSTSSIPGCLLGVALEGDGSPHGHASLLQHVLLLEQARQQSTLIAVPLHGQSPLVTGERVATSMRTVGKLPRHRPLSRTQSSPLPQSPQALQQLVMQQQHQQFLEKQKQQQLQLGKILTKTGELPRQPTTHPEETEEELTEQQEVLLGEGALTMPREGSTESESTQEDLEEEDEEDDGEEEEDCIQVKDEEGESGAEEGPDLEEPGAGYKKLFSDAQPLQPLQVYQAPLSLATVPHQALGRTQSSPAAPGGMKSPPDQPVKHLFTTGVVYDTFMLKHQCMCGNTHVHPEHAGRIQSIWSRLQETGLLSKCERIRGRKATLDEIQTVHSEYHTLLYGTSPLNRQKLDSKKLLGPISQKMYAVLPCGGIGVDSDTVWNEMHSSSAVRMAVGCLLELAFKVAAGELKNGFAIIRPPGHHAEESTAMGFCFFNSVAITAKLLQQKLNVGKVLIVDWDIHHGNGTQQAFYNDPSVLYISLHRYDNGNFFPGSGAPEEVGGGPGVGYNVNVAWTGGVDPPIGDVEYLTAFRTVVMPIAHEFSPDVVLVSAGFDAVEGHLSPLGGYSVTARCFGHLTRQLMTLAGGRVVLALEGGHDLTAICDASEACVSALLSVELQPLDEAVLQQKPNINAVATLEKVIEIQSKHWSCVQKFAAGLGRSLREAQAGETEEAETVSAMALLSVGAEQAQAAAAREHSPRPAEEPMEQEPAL
T2 sequence (Q13547 whole entry): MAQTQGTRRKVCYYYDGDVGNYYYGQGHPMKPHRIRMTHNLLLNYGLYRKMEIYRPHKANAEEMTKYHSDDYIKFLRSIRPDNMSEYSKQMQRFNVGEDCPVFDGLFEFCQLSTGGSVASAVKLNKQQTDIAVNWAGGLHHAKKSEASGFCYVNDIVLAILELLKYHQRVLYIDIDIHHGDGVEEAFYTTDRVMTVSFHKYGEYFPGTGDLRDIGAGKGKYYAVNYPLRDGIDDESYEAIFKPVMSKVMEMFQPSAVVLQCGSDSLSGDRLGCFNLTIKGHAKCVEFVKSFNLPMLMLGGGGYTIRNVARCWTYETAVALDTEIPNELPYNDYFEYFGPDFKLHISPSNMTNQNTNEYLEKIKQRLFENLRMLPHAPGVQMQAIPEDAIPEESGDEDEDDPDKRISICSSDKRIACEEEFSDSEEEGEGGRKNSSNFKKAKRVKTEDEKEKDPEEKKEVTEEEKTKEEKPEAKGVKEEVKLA
Chain of Histone deacetylase 2 (Q92769 whole entry): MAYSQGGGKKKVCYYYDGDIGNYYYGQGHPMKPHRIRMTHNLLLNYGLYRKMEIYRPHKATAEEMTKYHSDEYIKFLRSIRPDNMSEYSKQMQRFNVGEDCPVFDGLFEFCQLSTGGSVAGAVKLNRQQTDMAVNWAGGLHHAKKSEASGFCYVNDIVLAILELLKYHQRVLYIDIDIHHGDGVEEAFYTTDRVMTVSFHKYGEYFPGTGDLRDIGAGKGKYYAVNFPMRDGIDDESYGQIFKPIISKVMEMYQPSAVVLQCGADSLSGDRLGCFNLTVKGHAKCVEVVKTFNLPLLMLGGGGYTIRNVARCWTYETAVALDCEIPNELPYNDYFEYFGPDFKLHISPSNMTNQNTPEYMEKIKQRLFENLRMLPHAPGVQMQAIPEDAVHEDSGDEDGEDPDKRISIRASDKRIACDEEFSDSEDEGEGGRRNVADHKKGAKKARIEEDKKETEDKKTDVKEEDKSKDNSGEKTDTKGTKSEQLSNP
Chain of Histone deacetylase 9 (Q9UKV0 whole entry): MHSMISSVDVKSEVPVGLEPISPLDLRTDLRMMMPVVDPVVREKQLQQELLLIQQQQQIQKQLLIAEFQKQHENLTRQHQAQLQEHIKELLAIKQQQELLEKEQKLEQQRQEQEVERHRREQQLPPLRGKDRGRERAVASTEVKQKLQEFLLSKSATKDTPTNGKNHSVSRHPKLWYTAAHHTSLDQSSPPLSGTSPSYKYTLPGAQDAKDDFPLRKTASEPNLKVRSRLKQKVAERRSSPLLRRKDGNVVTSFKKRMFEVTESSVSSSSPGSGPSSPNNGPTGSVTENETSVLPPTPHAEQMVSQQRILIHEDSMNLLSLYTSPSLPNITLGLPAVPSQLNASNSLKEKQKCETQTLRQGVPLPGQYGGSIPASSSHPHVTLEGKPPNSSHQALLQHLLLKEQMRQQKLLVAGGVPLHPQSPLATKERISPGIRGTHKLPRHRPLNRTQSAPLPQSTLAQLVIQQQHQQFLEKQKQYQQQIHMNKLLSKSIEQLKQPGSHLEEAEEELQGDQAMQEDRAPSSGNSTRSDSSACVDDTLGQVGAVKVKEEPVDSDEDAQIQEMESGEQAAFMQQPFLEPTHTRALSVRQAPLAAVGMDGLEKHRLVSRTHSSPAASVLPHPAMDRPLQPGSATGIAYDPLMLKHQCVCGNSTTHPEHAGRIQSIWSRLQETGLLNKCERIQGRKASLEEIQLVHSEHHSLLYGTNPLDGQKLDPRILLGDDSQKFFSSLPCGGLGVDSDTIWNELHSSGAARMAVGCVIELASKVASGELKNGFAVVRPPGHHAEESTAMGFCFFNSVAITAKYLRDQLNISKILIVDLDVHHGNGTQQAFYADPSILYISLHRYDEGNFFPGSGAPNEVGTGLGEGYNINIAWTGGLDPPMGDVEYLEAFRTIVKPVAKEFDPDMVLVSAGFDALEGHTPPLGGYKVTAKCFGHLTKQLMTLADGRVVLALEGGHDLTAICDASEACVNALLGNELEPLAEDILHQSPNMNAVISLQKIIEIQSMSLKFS
Chain of Histone deacetylase 4 (P56524 whole entry): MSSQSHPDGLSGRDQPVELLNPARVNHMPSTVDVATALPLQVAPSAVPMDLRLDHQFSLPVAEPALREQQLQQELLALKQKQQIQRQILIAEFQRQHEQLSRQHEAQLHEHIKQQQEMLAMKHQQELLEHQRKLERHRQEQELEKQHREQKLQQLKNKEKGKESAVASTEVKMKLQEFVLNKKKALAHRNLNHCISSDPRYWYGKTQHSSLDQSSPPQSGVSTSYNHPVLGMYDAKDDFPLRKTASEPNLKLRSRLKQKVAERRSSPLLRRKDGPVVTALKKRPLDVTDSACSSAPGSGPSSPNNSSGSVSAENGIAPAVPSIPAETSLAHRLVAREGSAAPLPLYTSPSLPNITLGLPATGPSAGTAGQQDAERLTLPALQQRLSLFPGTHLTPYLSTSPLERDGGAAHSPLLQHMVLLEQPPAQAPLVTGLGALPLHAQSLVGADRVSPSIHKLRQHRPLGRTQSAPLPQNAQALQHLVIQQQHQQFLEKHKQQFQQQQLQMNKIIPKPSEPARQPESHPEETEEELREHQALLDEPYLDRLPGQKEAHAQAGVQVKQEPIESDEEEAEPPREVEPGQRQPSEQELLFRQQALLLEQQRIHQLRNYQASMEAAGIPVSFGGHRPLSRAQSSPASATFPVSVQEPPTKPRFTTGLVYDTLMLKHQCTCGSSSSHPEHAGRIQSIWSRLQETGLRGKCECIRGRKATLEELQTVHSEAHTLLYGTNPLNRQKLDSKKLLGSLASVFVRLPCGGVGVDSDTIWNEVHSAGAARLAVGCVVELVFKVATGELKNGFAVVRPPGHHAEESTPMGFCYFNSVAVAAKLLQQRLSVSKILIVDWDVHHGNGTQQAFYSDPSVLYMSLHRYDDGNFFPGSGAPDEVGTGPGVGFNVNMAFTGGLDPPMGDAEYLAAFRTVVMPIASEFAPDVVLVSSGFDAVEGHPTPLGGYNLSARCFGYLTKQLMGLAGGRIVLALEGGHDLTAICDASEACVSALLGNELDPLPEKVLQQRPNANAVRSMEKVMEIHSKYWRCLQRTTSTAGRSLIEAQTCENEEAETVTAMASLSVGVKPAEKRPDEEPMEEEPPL

SMILES: O=C(/C=C/c1ccc(C2CCCN2CCc2c(-c3cccnc3)nn3ccccc23)cc1)NO (configuration not stated)
IC50 [3]: 1 nM

SMILES: O=C(NO)c1ccc(Cn2c3c(c4ccccc42)CS(=O)(=O)CC3)cc1
IC50 [4]: 7700 nM
IC50 [5]: 500 nM
IC50 [6]: 26000 nM
IC50 [7]: 300 nM
IC50 [8]: 29000 nM

SMILES: CC(C)c1[nH]c2ccccc2c1C1CCCN(Cc2ccc(/C=C/C(=O)NO)cc2)C1 (configuration not stated)
IC50 [3]: 6 nM

SMILES: COc1cc(/C=C/C(=O)NO)ccc1OCCCCNC(=O)c1ccccc1O
IC50 [14]: 360 nM
IC50 [15]: 410 nM
IC50 [16]: 220 nM

SMILES: Cn1cc(C(=O)c2ccccc2)cc1/C=C/C(=O)NO
inhibition [17]: 86%

SMILES: Cc1ccc(C(=O)c2cc(/C=C/C(=O)NO)n(C)c2)cc1
inhibition [17]: 86.4%

SMILES: O=C(/C=C/c1ccc(C2CCCN2CCc2cnn3ccccc23)cc1)NO (configuration not stated)
IC50 [3]: 0.9 nM

SMILES: COc1ccccc1N1C(=O)CSC1c1cccc(C(=O)NCCCC(=O)NO)c1 (configuration not stated)
IC50 [2]: 4930 nM

Continued, values first:

IC50 [1]: > 500 nM
SMILES: O=C(NO)c1ccc2c(c1)CC1(CC2)CCN(Cc2ccncc2)C1=O (configuration not stated)

IC50 [2]: 52 nM
SMILES: O=C(CCCCCCC(=O)Nc1ccccc1N1C(=O)CSC1c1cccc(Br)c1)NO (configuration not stated)

IC50 [1]: ≤ 100 nM
SMILES: O=C(NO)c1ccc2c(c1)CC1(CC2)CCN(Cc2ccc(OC(F)(F)F)cc2)C1=O (configuration not stated)

IC50 [9]: 500 nM
IC50 [10]: 2400 nM
IC50 [4]: 6400 nM
IC50 [11]: 1200 nM
IC50 [12]: 9.4 nM
IC50 [5]: 1300 nM
IC50 [13]: 9400 nM
IC50 [6]: > 30000 nM
IC50 [7]: 500 nM
IC50 [8]: 24000 nM
SMILES: O=C(NO)c1ccc(Cn2c3c(c4cc(F)ccc42)C[S+]([O-])CC3)cc1 (configuration not stated)

IC50 [2]: 29 nM
SMILES: O=C(CCCCCCCOc1ccccc1N1C(=O)CSC1c1cccc(Br)c1)NO (configuration not stated)

IC50 [1]: > 500 nM
SMILES: CC(C)N1CCC2(CCc3ccc(C(=O)NO)cc3C2)C1=O (configuration not stated)

IC50 [2]: 530 nM
SMILES: O=C(CCCCOc1ccccc1N1C(=O)CSC1c1cccc(Br)c1)NO (configuration not stated)

inhibition [17]: 87%
SMILES: Cn1cc(C(=O)c2ccc(Cl)cc2)cc1/C=C/C(=O)NO

IC50 [2]: 1860 nM
SMILES: O=C(CCCOc1ccccc1N1C(=O)CSC1c1cccc(Br)c1)NO (configuration not stated)

IC50 [2]: 17 nM
SMILES: COc1ccccc1N1C(=O)CSC1c1cccc(NC(=O)CCCCCC(=O)NO)c1 (configuration not stated)

IC50 [9]: 17000 nM
IC50 [10]: 1900 nM
IC50 [4]: 13000 nM
IC50 [11]: 600 nM
IC50 [12]: 8.2 nM
IC50 [5]: 400 nM
IC50 [13]: 12000 nM
IC50 [6]: > 30000 nM
IC50 [7]: 200 nM
SMILES: O=C(NO)c1ccc(CN2c3ccccc3C3C2CCS3(=O)=O)cc1 (configuration not stated)
